Test results as given in ChEMBL document CHEMBL5543144, “Discovery of a Novel Potent Tetrazole Antifungal Candidate with High Selectivity and Broad Spectrum” (J Med Chem, 2024).
Values after ≈ are worked out from the molar mass of the structure shown. Active and inactive are the calls of the source. No cut-off for these calls is given here.

Key:
[1] = tested on: Candida albicans; test: Antifungal activity against Candida albicans SC5314 assessed as inhibition of fungal growth incubated for 24 hrs by CLSI protocol based microbroth dilution method; assay type: functional
[2] = tested on: Candida parapsilosis; test: Antifungal activity against Candida parapsilosis 22019 assessed as inhibition of fungal growth incubated for 24 hrs by CLSI protocol based microbroth dilution method; assay type: functional; settings: Lodderomyces parapsilosis
[3] = tested on: Candida tropicalis; test: Antifungal activity against Candida tropicalis 2718 assessed as inhibition of fungal growth incubated for 24 hrs by CLSI protocol based microbroth dilution method; assay type: functional
[4] = tested on: Pichia kudriavzevii; test: Antifungal activity against Candida krusei 4946 assessed as inhibition of fungal growth incubated for 24 hrs by CLSI protocol based microbroth dilution method; assay type: functional
[5] = tested on: Nakaseomyces glabratus; test: Antifungal activity against Candida glabrata 537 assessed as inhibition of fungal growth incubated for 48 hrs by CLSI protocol based microbroth dilution method; assay type: functional
[6] = tested on: Cryptococcus neoformans; test: Antifungal activity against Cryptococcus neoformans H99 assessed as inhibition of fungal growth incubated for 72 hrs by CLSI protocol based microbroth dilution method; assay type: functional
[7] = tested on: Aspergillus fumigatus; test: Antifungal activity against Aspergillus fumigatus 7544 assessed as inhibition of fungal growth incubated for 48 hrs by CLSI protocol based microbroth dilution method; assay type: functional
[8] = tested on: [Candida] auris; test: Antifungal activity against fluconazole resistant Candida auris 887 assessed as inhibition of fungal growth incubated for 48 hrs by CLSI protocol based microbroth dilution method; assay type: functional; settings: Candidozyma auris
[9] = tested on: [Candida] auris; test: Antifungal activity against fluconazole resistant Candida auris 888 assessed as inhibition of fungal growth incubated for 48 hrs by CLSI protocol based microbroth dilution method; assay type: functional; settings: Candidozyma auris
[10] = tested on: [Candida] auris; test: Antifungal activity against fluconazole resistant Candida auris D12 assessed as inhibition of fungal growth incubated for 48 hrs by CLSI protocol based microbroth dilution method; assay type: functional; settings: Candidozyma auris
[11] = tested on: [Candida] auris; test: Antifungal activity against fluconazole resistant Candida auris BS12372 assessed as inhibition of fungal growth incubated for 48 hrs by CLSI protocol based microbroth dilution method; assay type: functional; settings: Candidozyma auris
[12] = tested on: [Candida] auris; test: Antifungal activity against fluconazole resistant Candida auris 789 assessed as inhibition of fungal growth incubated for 48 hrs by CLSI protocol based microbroth dilution method; assay type: functional; settings: Candidozyma auris
[13] = tested on: [Candida] auris; test: Antifungal activity against fluconazole resistant Candida auris 791 assessed as inhibition of fungal growth incubated for 48 hrs by CLSI protocol based microbroth dilution method; assay type: functional; settings: Candidozyma auris
[14] = tested on: Candida albicans; test: Antifungal activity against Candida albicans SC5314 assessed as inhibition of fungal growth at 0.0156 ug/ml incubated for 24 hrs by plate reader analysis; assay type: functional, organism-based; settings: dose 0.0156 µg/ml
[15] = tested on: Cryptococcus neoformans; test: Antifungal activity against Cryptococcus neoformans H99 assessed as inhibition of fungal growth at 0.125 ug/ml incubated for 48 hrs by plate reader analysis; assay type: functional, organism-based; settings: dose 0.125 µg/ml
[16] = tested on: Pichia kudriavzevii; test: Antifungal activity against Candida krusei 4946 assessed as inhibition of fungal growth at 0.125 ug/ml incubated for 24 hrs by plate reader analysis; assay type: functional, organism-based; settings: dose 0.125 µg/ml
[17] = Hemolytic activity in rabbit RBC assessed as hemolysis at 4 ug/ml incubated for 1 hrs by absorbance based assay relative to control; assay type: toxicity, cell-based, Oryctolagus cuniculus, Erythrocyte; settings: rabbit red blood cells, at 4 µg/mL, read-out: Activity
[18] = tested on: Candida tropicalis; test: Antifungal activity against Candida tropicalis 2718 assessed as inhibition of fungal growth at 32 ug/ml incubated for 24 hrs by plate reader analysis; assay type: functional, organism-based; settings: dose 32.0 µg/ml
[19] = tested on: Candida albicans; test: Antifungal activity against Candida albicans SC5314 infected in ICR mouse model assessed as fungal burden in kidney at 1 mg/kg/day, po pre-infected with fungi for 2 hrs followed by compound administration and measured after 48 hrs (reference value: 3.89 Log10CFU/g); assay type: functional
[20] = tested on: Erythrocyte; test: Hemolytic activity in rabbit RBC assessed as hemolysis at 64 ug/ml incubated for 1 hrs by absorbance based assay; assay type: toxicity, cell-based, Oryctolagus cuniculus; settings: dose 64 µg/ml
[21] = target: Lanosterol 14-alpha demethylase (Candida albicans (strain SC5314 / ATCC MYA-2876) (Yeast), UniProt P10613); test: Inhibition of CYP51 in Candida albicans SC5314 assessed as ergosterol level at 0.5 ug/ml incubated for 8 hrs by GC-MS analysis (reference value: 79.31%); set-up: scale not given: the % may be the effect or the level left; settings: at 0.5 µg/mL
Lanosterol 14-alpha demethylase, sequence (P10613 whole entry): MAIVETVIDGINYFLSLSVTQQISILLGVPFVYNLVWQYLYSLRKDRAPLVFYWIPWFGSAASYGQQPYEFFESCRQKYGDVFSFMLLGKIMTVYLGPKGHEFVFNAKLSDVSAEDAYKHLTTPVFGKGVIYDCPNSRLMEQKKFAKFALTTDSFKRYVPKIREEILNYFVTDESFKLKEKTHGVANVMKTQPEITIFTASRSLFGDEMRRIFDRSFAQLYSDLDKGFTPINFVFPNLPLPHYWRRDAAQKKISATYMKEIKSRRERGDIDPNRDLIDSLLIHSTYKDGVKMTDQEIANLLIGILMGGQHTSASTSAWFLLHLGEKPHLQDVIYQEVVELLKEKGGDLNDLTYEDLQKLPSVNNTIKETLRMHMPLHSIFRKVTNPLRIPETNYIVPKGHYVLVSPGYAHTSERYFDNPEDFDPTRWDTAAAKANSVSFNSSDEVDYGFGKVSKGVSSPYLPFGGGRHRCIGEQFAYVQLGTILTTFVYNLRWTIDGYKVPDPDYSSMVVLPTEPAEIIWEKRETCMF

[22] = tested on: Cell membrane; test: Disruption of cell membrane integrity in Candida albicans SC5314 assessed as increase in increase in red fluorescence at 0.5 ug/ml incubated for 8 hrs by PI staining based fluorescence microscopic analysis; settings: dose 0.5 µg/ml
[23] = target: T1, Cytochrome P450 1A2 (Homo sapiens, UniProt P05177); test: Inhibition of CYP1A2 in human liver microsomes using phenacetin as substrate in presence of NADPH by LC-MS/MS analysis
T1 sequence (P05177 whole entry): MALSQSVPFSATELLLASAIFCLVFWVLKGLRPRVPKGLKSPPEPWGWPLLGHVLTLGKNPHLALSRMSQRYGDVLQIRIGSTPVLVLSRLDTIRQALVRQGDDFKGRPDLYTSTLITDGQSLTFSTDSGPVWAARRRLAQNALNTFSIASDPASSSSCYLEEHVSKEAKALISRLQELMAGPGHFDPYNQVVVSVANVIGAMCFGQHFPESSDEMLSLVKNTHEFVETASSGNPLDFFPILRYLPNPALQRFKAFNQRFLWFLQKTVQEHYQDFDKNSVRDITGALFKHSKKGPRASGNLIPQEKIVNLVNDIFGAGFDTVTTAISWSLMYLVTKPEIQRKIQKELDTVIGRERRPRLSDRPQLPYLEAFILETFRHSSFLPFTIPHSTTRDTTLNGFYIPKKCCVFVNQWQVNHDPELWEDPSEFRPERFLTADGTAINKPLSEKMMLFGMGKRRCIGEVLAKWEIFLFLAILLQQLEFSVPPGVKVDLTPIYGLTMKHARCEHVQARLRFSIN

[24] = tested on: Candida albicans; test: Antifungal activity against Candida albicans SC5314 infected in ICR mouse model assessed as median survival time at 1 mg/kg/day, po pre-infected with fungi for 2 hrs followed by compound administration and measured after 48 hrs (reference value: 3.5 days); assay type: functional
[25] = target: Cytochrome P450 2C9 (Homo sapiens, UniProt P11712)
Cytochrome P450 2C9, sequence (P11712 whole entry): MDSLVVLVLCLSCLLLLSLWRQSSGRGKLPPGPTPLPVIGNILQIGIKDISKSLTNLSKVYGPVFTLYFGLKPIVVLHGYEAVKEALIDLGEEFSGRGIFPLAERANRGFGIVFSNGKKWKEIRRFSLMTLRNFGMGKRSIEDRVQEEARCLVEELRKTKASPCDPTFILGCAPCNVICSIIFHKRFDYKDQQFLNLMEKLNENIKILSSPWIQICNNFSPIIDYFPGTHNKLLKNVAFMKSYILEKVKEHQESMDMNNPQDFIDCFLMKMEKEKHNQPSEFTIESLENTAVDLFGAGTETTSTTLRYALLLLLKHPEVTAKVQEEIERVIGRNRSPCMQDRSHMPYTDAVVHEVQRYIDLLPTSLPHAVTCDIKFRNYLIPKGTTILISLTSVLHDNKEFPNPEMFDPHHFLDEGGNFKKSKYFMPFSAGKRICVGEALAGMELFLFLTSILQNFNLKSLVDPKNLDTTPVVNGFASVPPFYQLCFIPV

[26] = target: Cytochrome P450 2C19 (Homo sapiens, UniProt P33261)
Cytochrome P450 2C19, sequence (P33261 whole entry): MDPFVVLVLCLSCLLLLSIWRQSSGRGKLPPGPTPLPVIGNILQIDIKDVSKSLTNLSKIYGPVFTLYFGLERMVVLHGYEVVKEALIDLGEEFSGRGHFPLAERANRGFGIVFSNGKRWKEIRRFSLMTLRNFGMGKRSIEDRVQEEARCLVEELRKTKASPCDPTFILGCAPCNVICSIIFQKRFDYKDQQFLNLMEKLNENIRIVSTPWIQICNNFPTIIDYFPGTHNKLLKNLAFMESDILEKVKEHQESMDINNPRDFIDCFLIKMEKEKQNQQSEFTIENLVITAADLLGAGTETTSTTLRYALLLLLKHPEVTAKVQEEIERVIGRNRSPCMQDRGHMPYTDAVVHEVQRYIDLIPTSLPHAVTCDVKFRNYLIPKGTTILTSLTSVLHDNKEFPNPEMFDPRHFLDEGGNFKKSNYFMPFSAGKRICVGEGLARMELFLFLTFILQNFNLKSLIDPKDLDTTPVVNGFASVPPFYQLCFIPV

[27] = target: Cytochrome P450 2D6 (Homo sapiens, UniProt P10635)
Cytochrome P450 2D6, sequence (P10635 whole entry): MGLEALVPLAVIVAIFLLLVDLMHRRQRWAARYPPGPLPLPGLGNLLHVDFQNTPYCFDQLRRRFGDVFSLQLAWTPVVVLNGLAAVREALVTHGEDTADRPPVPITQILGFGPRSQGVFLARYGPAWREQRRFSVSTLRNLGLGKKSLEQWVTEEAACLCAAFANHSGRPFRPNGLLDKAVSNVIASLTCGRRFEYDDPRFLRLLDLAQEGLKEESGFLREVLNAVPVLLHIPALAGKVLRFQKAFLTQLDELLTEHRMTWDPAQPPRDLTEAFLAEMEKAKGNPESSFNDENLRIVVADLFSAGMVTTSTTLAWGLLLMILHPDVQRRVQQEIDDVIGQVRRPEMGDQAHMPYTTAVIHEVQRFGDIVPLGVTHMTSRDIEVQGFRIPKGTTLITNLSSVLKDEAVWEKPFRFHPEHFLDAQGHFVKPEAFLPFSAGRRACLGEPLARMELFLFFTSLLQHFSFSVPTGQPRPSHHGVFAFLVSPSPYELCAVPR

[28] = target: Cytochrome P450 3A4 (Homo sapiens, UniProt P08684)
Cytochrome P450 3A4, sequence (P08684 whole entry): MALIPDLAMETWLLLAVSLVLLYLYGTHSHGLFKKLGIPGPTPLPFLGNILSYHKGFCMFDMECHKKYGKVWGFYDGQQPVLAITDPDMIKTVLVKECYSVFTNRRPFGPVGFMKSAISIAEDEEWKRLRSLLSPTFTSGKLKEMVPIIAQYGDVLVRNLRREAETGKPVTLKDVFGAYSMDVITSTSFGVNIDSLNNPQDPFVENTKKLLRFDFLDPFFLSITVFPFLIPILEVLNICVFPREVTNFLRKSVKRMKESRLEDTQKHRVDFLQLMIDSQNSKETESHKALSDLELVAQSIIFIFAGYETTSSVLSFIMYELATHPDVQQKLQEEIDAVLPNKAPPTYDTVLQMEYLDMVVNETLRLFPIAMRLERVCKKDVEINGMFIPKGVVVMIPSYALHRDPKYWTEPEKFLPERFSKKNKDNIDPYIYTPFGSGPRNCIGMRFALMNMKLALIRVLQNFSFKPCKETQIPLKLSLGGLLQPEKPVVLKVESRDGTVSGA

Row | SMILES | MIC50 [1] | MIC50 [2] | MIC50 [3] | MIC50 [4] | MIC50 [5] | MIC50 [6] | MIC50 [7] | MIC50 [8] | MIC50 [9] | MIC50 [10] | MIC50 [11] | MIC50 [12] | MIC50 [13] | Activity [14] | Activity [15] | Activity [18] | Activity [19] | also measured
1 | C[C@@H](n1ccc2cc(Cl)ccc2c1=O)[C@](O)(Cn1cncn1)c1ccc(F)cc1F | < 0.008 µg/mL | < 0.008 µg/mL | < 0.008 µg/mL | 0.063 µg/mL (≈ 0.146 µM) | < 0.008 µg/mL | < 0.008 µg/mL | 0.25 µg/mL (≈ 0.58 µM) | 0.25 µg/mL (≈ 0.58 µM) | 0.25 µg/mL (≈ 0.58 µM) | 0.25 µg/mL (≈ 0.58 µM) | 0.25 µg/mL (≈ 0.58 µM) | 0.5 µg/mL (≈ 1.16 µM) | 0.5 µg/mL (≈ 1.16 µM) | Active | Active | – | – | Activity [16]: Active
2 | C[C@@H]1[C@H](O)[C@@H](C)/C=C/C=C/C=C/C=C/C=C/C=C/C=C/[C@H](O[C@@H]2O[C@H](C)[C@@H](O)[C@H](N)[C@@H]2O)C[C@@H]2O[C@](O)(C[C@@H](O)C[C@@H](O)[C@H](O)CC[C@@H](O)C[C@@H](O)CC(=O)O[C@H]1C)C[C@H](O)[C@H]2C(=O)O [AMPHOTERICIN B] | – | – | – | – | – | – | – | 2 µg/mL (≈ 2.16 µM) | 2 µg/mL (≈ 2.16 µM) | 4 µg/mL (≈ 4.33 µM) | 2 µg/mL (≈ 2.16 µM) | 2 µg/mL (≈ 2.16 µM) | 4 µg/mL (≈ 4.33 µM) | – | – | – | – | hemolysis at 1 h, 4 ug/ml [17]: > 50%
3 | C[C@@H](n1ncc2cc(Cl)ccc2c1=O)[C@](O)(Cn1cnnn1)c1ccc(F)cc1F | < 0.008 µg/mL | 0.063 µg/mL (≈ 0.146 µM) | < 0.008 µg/mL | 0.5 µg/mL (≈ 1.16 µM) | < 0.008 µg/mL | 0.063 µg/mL (≈ 0.146 µM) | 8 µg/mL (≈ 18.5 µM) | 16 µg/mL (≈ 37 µM) | 32 µg/mL (≈ 73.9 µM) | 8 µg/mL (≈ 18.5 µM) | 4 µg/mL (≈ 9.24 µM) | 16 µg/mL (≈ 37 µM) | 32 µg/mL (≈ 73.9 µM) | – | – | Active | – | –
4 | C[C@@H](n1ncc2cc(Cl)ccc2c1=O)[C@](O)(Cn1cncn1)c1ccc(F)cc1F | < 0.008 µg/mL | < 0.008 µg/mL | < 0.008 µg/mL | 0.125 µg/mL (≈ 0.289 µM) | < 0.008 µg/mL | < 0.008 µg/mL | 0.25 µg/mL (≈ 0.579 µM) | 1 µg/mL (≈ 2.32 µM) | 1 µg/mL (≈ 2.32 µM) | 0.5 µg/mL (≈ 1.16 µM) | 0.5 µg/mL (≈ 1.16 µM) | 2 µg/mL (≈ 4.63 µM) | 1 µg/mL (≈ 2.32 µM) | Active | Active | – | – | –
5 | OC(Cn1cncn1)(Cn1cncn1)c1ccc(F)cc1F [FLUCONAZOLE] | 0.125 µg/mL (≈ 0.408 µM) | 1 µg/mL (≈ 3.27 µM) | < 0.125 µg/mL | 8 µg/mL (≈ 26.1 µM) | 0.5 µg/mL (≈ 1.63 µM) | 8 µg/mL (≈ 26.1 µM) | > 64 µg/mL | > 64 µg/mL | > 64 µg/mL | > 64 µg/mL | > 64 µg/mL | > 64 µg/mL | > 64 µg/mL | – | – | – | 2.41 log10CFU/g | Activity [20]: Non-Toxic; Activity [21]: 10.61%; Activity [22]: Active
6 | C[C@@H](n1cnc2cc(Cl)ccc2c1=O)[C@](O)(Cn1cncn1)c1ccc(F)cc1F [ALBACONAZOLE] | < 0.008 µg/mL | < 0.008 µg/mL | < 0.008 µg/mL | 0.125 µg/mL (≈ 0.289 µM) | < 0.008 µg/mL | < 0.008 µg/mL | 0.25 µg/mL (≈ 0.579 µM) | 0.5 µg/mL (≈ 1.16 µM) | 0.5 µg/mL (≈ 1.16 µM) | 0.5 µg/mL (≈ 1.16 µM) | 0.25 µg/mL (≈ 0.579 µM) | 0.5 µg/mL (≈ 1.16 µM) | 0.5 µg/mL (≈ 1.16 µM) | Active | – | Active | 3.54 log10CFU/g | IC50 [23]: 60.3 µM; MST [24]: 3.5 days; IC50 [25]: 10.4 µM; IC50 [26]: 13 µM; IC50 [27]: 31.7 µM; IC50 [28]: 0.04 µM
